The results in this text go back to patent US20210039089A1, “DEVICES, KITS, AND METHODS FOR LABEL-FREE SEPARATION AND SUBTYPING OF RARE CELLS” (University of Georgia Research Foundation, Inc., priority 2019, published 2021).

Assay [1] has as its system MDA-MB-231 breast cancer cell line. Briefly: MChip cancer cell migration assay, cells loaded in channel #1. In kind it is cell-based. The procedure: The microfluidic device was pre-filled with FBS-free cell culture medium and incubated at 37° C. for 1 hour. All of the channel inlet/outlet, except cell loading inlets (top/bottom channel #1) and middle channel outlet, are sealed with tape before cell loading. Cancer cells were collected from culture plates with 0.25% Trypsin-EDTA (ThermoFisher, Waltham, Mass.) and pelleted by centrifugation at 500 g for 5 minutes. Then, the cells were re-suspended in FBS-free culture medium, DMEM or RPMI (ThermoFisher, Waltham, Mass.), to a concentration of 5×10^5 cells/mL. 50 μL of cell suspension was pipetted into the cell loading channels. One syringe pump (Chemyx, Stafford, Tex.) was connected to the middle channel outlet and the flow rate was 5 μL/min. When all entrances of migration channels were filled with cancer cells, the pump was stopped and the cell suspension was replaced with FBS-free cell culture medium. The device was then placed in the incubator (37° C., 5% CO2) for 40 min to ensure the cell adhesion to the glass slide. Then, the tape/covers were removed from the cell loading outlet and middle inlet, and these inlets were connected with syringe pumps. The FBS-free medium flowed into the cell loading channel while the middle channel was filled with medium containing 10% FBS. The flow rates for 3 channels were 0.1 μL/min. The entire chip was placed in the cell culture incubator (37° C., 5% CO2) for about 24 hours. […]
Since migration time^14, 21 and FBS concentration were key parameters that determined the final position of individual cells, a series experiment were conducted to test the influence of different FBS concentrations (0%, 5%, and 10%) and various working time (6 hr, 12 hr, and 24 hr). […] It is noteworthy that cell migratory behaviors were also determined by the glass coating method, for example, coating using different concentrations of collagen and poly-L-Lysine (FIG. 7). […]

The subject of assay [2] is WBCs. The experiment in a line: MChip purification assay, cells loaded in middle channel, WBC readout. The class given is cell-based, human. The method, then: (§1) WBCs and MDA-MB-231 cancer cells were mixed at a 1:1 ratio in FBS-free DMEM medium and loaded to the top edge of the middle/main channel. The positions of these cells were determined by an optimized flow rate and open/close of channel inlets/outlets. Briefly, the microfluidic device was filled with cell culture medium and incubator at 37° C. for one hour. Sealed all the inlet/outlets except cell loading inlet (middle/main channel) and channel #1 outlet (top). 50 μL cell mixture was loaded into cell loading inlet and the cell alignment was achieved using a syringe pump (5 μL/min) that connected to the channel #1 outlet (top). Then replaced the cell suspension with FBS-free medium and incubated for 30 minutes. The FBS-free medium flowed into the middle channel, the top channel (first outer channel) #1 was filled with medium containing 10% FBS, and the bottom channel (second outer channel) […] was filled with FBS-free medium containing FMLP (200 ng/mL). The flow rates for 3 channels were 0.1 μL/min. The cells were incubated at 37° C. for 24 hours.
The blood sample was drawn from multiple healthy donors in compliance with the applicable federal, state, and institutional policies and procedures in the United States. Healthy human blood samples were obtained from the Clinical and Translational Research Unit of the University of Georgia with informed consent according to an IRB-approved protocol. The collected blood samples were stored in vacutainer K2-EDTA (BD, Franklin Lakes, N.J.). Complete blood count (CBC) reported was obtained to determine the number & subtypes of WBCs. The blood processing with iFCS was discussed in our previous work (Zhao, et al., Lab on a Chip 2019, 19 (10), 1860-76, incorporated by reference above).^10
(§2) To retrieve the cancer cells of heterogeneously migratory properties with low WBCs contamination, the cell loading channel and “chemos” loading channel (middle, #9) were swapped: cells was loaded to the top part of the middle channel (#9) while the serum was loaded into side channels (top/bottom, #1). […]

In the next assay the test system is MDA-MB-231 cancer cells. The experiment in a line: MChip purification assay, cells loaded in middle channel, cancer cell readout. In kind it is cell-based. The settings on record: FMLP vs control; FIG. 14. The method, then:
as §1, §2

The test system of assay [3] is WBCs. Briefly: MChip WBC migration assay, cells loaded in channel #1. The class given is cell-based, human. The method, then: FIGS. 6A-6H illustrate purification of circulating tumor cells isolated from human blood using iFCS separation and an embodiment of a device of the present disclosure. FIG. 6A is images validation of combination effect of using iFCS and a device of the present disclosure with cultured cancer cells spiked into healthy blood. Left, an iFCS device was used to recover more than 99.2% spiked cancer cells and deplete many WBCs (˜500 cells per mL). Collected cancer cells and WBCs were injected into the “MChip” of the present disclosure to further purify CTC by removing most remaining WBCs based on different migratory abilities, as shown in the right image. Migratory cancer cells could be retrieved with high purity. FIG. 6B is a graph comparing migratory abilities for cells before and after iFCS processing. […] FIG. 6C illustrates WBC (n=-5000, channel #1 loading) migration assays under control (FBS only), WBC chemo-attractant (FM LP) and WBC chemo-repellent (Slit2). FBS (10%) or Slit2 (5 μg/mL) were loaded into the middle channel (channel #9), while FMLP (200 ng/mL) were filled in the […]. Only the WBCs of >200 μm Y position were counted. […] Right, images of WBCs 24-hour migration assay using Slit2 (5 μg/mL) in 10% FBS. Flow rate v=0.1 μL/min. WBCs were stained with cell tracker red. Fluorescence images were taken at 0 hour and 24 hours. Circles indicate the migratory WBCs. FIG. 6D is a graph illustrating breast cancer cells, MDA-MB-231, loaded into channel #1 with Slit2 (5 μg/mL) in 10% FBS in the middle channel. Flow rate v=0.1 μL/min. The graph indicates positions of MDA-MB-231 and the rectangular symbols indicate the mean value. FIG. 6E is an image of WBCs (red) and MDA-MB-231 (green) mixture (1:1) migration assay with middle channel (channel #9) filled with 10% FBS and Slit2 (5 μg/mL). At 24 hours, most of the migratory cancer cells moved into the migration/collection channels with ˜2 WBCs contamination. FIG. 6F illustrates a WBC migration assay using FBS, FMLP, and Slit2. WBCs (n=˜2500) loaded into the top edge of the middle channel. […]

[4] abbreviates: 1:1 mixture, 10% FBS top channel, 0% FBS middle, 0% FBS + FMLP (200 ng/mL) bottom, 24 hours.

“Also recorded” adds a separate entry of the source.

Regarding collagen, in assay [1] (collagen vs poly-L-Lysine coating at different concentrations, FIG. 7), the “average migration distance by glass coating method” value is reported as “largest”.

For the molecule fMet-Leu-Phe [FMLP], in the assay on WBCs [2] (setting [4]), the “WBCs moved to the bottom part” value stood at 88.3% and the “WBCs stayed in the middle loading channel” value is 11.2%. In the assay on WBCs [2] (FMLP in bottom side channel, WBCs loaded at top edge of middle channel, FIG. 6F), the “effect on WBC migration direction” value is “attract the majority of WBCs to the bottom part; also recorded: significant performance in inducing cells toward the bottom channel”. In addition, in the assay with MDA-MB-231 cancer cells, the “effect on MDA-MB-231 migration” value is “without a negative effect”.

B1: slit2: Slit guidance ligand 2, chemo-repellent for WBCs, neutrophil inhibitor (protein, UniProt O94813 31-1529, looked up)
Slit homolog 2 protein: QCSCSGSTVDCHGLALRSVPRNIPRNTERLDLNGNNITRITKTDFAGLRHLRVLQLMENKISTIERGAFQDLKELERLRLNRNHLQLFPELLFLGTAKLYRLDLSENQIQAIPRKAFRGAVDIKNLQLDYNQISCIEDGAFRALRDLEVLTLNNNNITRLSVASFNHMPKLRTFRLHSNNLYCDCHLAWLSDWLRQRPRVGLYTQCMGPSHLRGHNVAEVQKREFVCSGHQSFMAPSCSVLHCPAACTCSNNIVDCRGKGLTEIPTNLPETITEIRLEQNTIKVIPPGAFSPYKKLRRIDLSNNQISELAPDAFQGLRSLNSLVLYGNKITELPKSLFEGLFSLQLLLLNANKINCLRVDAFQDLHNLNLLSLYDNKLQTIAKGTFSPLRAIQTMHLAQNPFICDCHLKWLADYLHTNPIETSGARCTSPRRLANKRIGQIKSKKFRCSAKEQYFIPGTEDYRSKLSGDCFADLACPEKCRCEGTTVDCSNQKLNKIPEHIPQYTAELRLNNNEFTVLEATGIFKKLPQLRKINFSNNKITDIEEGAFEGASGVNEILLTSNRLENVQHKMFKGLESLKTLMLRSNRITCVGNDSFIGLSSVRLLSLYDNQITTVAPGAFDTLHSLSTLNLLANPFNCNCYLAWLGEWLRKKRIVTGNPRCQKPYFLKEIPIQDVAIQDFTCDDGNDDNSCSPLSRCPTECTCLDTVVRCSNKGLKVLPKGIPRDVTELYLDGNQFTLVPKELSNYKHLTLIDLSNNRISTLSNQSFSNMTQLLTLILSYNRLRCIPPRTFDGLKSLRLLSLHGNDISVVPEGAFNDLSALSHLAIGANPLYCDCNMQWLSDWVKSEYKEPGIARCAGPGEMADKLLLTTPSKKFTCQGPVDVNILAKCNPCLSNPCKNDGTCNSDPVDFYRCTCPYGFKGQDCDVPIHACISNPCKHGGTCHLKEGEEDGFWCICADGFEGENCEVNVDDCEDNDCENNSTCVDGINNYTCLCPPEYTGELCEEKLDFCAQDLNPCQHDSKCILTPKGFKCDCTPGYVGEHCDIDFDDCQDNKCKNGAHCTDAVNGYTCICPEGYSGLFCEFSPPMVLPRTSPCDNFDCQNGAQCIVRINEPICQCLPGYQGEKCEKLVSVNFINKESYLQIPSAKVRPQTNITLQIATDEDSGILLYKGDKDHIAVELYRGRVRASYDTGSHPASAIYSVETINDGNFHIVELLALDQSLSLSVDGGNPKIITNLSKQSTLNFDSPLYVGGMPGKSNVASLRQAPGQNGTSFHGCIRNLYINSELQDFQKVPMQTGILPGCEPCHKKVCAHGTCQPSSQAGFTCECQEGWMGPLCDQRTNDPCLGNKCVHGTCLPINAFSYSCKCLEGHGGVLCDEEEDLFNPCQAIKCKHGKCRLSGLGQPYCECSSGYTGDSCDREISCRGERIRDYYQKQQGYAACQTTKKVSRLECRGGCAGGQCCGPLRSKRRKYSFECTDGSSFVDEVEKVVKCGCTRCVS
B1: the “WBCs contamination in migration/collection channels” value with WBCs [3] (WBCs and MDA-MB-231 mixture (1:1), middle channel 10% FBS and Slit2 (5 μg/mL), 24 hours) is given as about 2 WBCs. Also, the “loaded WBCs remaining in the loading channel with non-migratory cells” value with WBCs [3] (middle channel 10% FBS and 5 μg/mL slit2) is 99.6%. For the same molecule, in the assay with WBCs [3] (middle channel loaded with 10% FBS and 5 μg/mL slit2, 24 hours, 0.1 μL/min), the “WBCs that left the cell loading channel (#1)” value is 0.4%. Besides, the “cancer cells squeezed into the migration channel” value in assay [1] (5 μg/mL slit2 in 10% FBS in middle channel, 0.1 μL/min) worked out at 85%. For the same molecule, in assay [1] (5 μg/mL slit2 in 10% FBS in middle channel, P=0.004), the “effect on migratory behavior of MDA-MB-231 cancer cells” value was “slightly compromise”.
